# Laboratory results: patent publication US7612089B2, “Tetrahydroisoquinolines as factor Xa inhibitors” (Portola Pharmaceuticals, Inc., priority 2004, dated 2009)
# Molecular target: T1, human plasma protein factor Xa (Homo sapiens, UniProt P00742)
# T1 construct: The human plasma protein factor Xa was purchased; purchased Haematologic Technologies (Essex Junction, Vt.); host or cells: human plasma
# Assay: Factor Xa IC50 determination (cleavage of paranitroanilide substrate S-2765)
# Assay type: biochemical
# Settings: fXa 1 nM, S2765 100 μM, Tris buffered saline pH 7.4, room temperature
# Excerpt: This example illustrates methods for evaluating the compounds of the invention, along with results obtained for such assays. The in vitro and in vivo Factor Xa isoform activities of the inventive compounds can be determined by various procedures known in the art, such as a test for their ability to inhibit the activity of the Factor Xa isoform. […] The IC50 value is the concentration (in nM) of the compound required to provide 50% inhibition of Factor Xa isoform.
# An in vitro assay for detecting and measuring inhibition activity against Factor Xa is as follows:
# IC50 and Ki Determinations:
# The substrate S-2765 (Z-D-Arg-Gly-Arg-pNA.HCl) was obtained from Diapharma (West Chester, Ohio).
# The human plasma protein factor Xa was purchased from Haematologic Technologies (Essex Junction, Vt.).
# All assays, which are performed in 96-well microtiter plates, measure proteolytic activity of the enzyme (factor Xa) by following cleavage of paranitroanilide substrate. The assay buffer used for proteolytic assays was Tris buffered saline (20 mM Tris, 150 mM NaCl, 5 mM CaCl2, 0.1% Bovine serum albumin (BSA), 5% Dimethly Sulfoxide (DMSO) pH 7.4). In a 96-well microtiter plate, inhibitor was serially diluted to give a range of concentrations from 0.01 nM to 10 μM (final). Duplicate sets of wells were assayed and control wells without inhibitor were included. Enzyme was added to each well, (fXa concentration=1 nM), the plate was shaken for 5 seconds and then incubated for 5 minutes at room temperature. S2765 was added (100 μM final) and the plate was shaken for 5 seconds (final liquid volume in each well was 200 μl). The degree of substrate hydrolysis was measured at 405 nm on a Thermomax plate reader (Molecular Devices, Sunnyvale, Calif.) for 2 minutes. The initial velocities (mOD/min), for each range of inhibitor concentrations, were fitted to a four parameter equation using Softmax data analysis software. The parameter C, derived from the resulting curve-fit, corresponded to the concentration for half maximal inhibition (IC50).
# T1 sequence (P00742 235-488 limits assumed): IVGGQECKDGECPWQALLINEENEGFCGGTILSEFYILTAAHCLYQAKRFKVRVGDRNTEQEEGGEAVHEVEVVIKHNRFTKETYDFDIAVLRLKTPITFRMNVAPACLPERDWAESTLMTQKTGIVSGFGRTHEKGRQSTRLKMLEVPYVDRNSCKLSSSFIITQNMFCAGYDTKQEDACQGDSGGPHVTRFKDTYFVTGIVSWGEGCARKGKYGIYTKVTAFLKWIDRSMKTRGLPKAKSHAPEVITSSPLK
# T1 sequence (P00742 41-179 partner limits assumed): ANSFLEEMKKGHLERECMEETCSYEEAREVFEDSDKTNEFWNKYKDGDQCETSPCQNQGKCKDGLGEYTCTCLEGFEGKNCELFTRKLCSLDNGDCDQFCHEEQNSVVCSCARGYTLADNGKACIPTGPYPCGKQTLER
row,Structure (SMILES),IC50
1,"COc1cc2c(cc1OC)CN(C(=O)Nc1ccc(Cl)cc1)[C@H](C(=O)Nc1ccc(C(=N)N(C)C)cc1)C2 [Example 23, (3S)-N-[4-(dimethylaminoimino)phenyl]-2N-(4-chlorophenylaminocarbonyl)-6,7-diemthoxy-1,2,3,4-tetrahydroisoquinoline-3-carboxamide]",≥ 0.5 µM
2,"O=C(Nc1ccc(-n2ccccc2=S)cc1)C1Cc2cc(O)ccc2CN1C(=O)Nc1ccc(Cl)cc1 (centres unmarked) [Example 41, N-[4-(2-thiopyridon-1-yl)phenyl]-2N-(4-chlorophenylaminocarbonyl)-6-hydroxy-1,2,3,4-tetrahydroisoquinoline-3-carboxamide]",≤ 0.1 µM
3,"CN1CCN=C1c1ccc(NC(=O)[C@H]2Cc3ccccc3CN2C(=O)Nc2ccc(Cl)cc2)cc1 [3(R), (3R)-N-[4-(1-methyl-4,5-dihydro-1H-imidazol-2-yl)phenyl]-2N-(4-chlorophenylaminocarbonyl)-1,2,3,4-tetrahydroisoquinoline-3-carboxamide]",≤ 0.1 µM
4,"CN1CCN=C1c1ccc(NC(=O)C2Cc3ccccc3CN2C(=O)Nc2ccc(Cl)cc2)cc1 (centres unmarked) [Example 1, N-[4-(1-methyl-4,5-dihydro-1H-imidazol-2-yl)phenyl]-2N-(4-chlorophenylaminocarbonyl)-1,2,3,4-tetrahydroisoquinoline-3-carboxamide]",≤ 0.1 µM
5,"COc1cc2c(cc1OC)CN(C(=O)Nc1ccc(Cl)cc1)[C@H](C(=O)Nc1ccc(C(=N)N3CCCC3)cc1)C2 [Example 22, (3S)-N-[4-(pyrrolidinylimino)phenyl]-2N-(4-chlorophenylaminocarbonyl)-6,7-dimethoxy-1,2,3,4-tetrahydroisoquinoline-3-carboxamide]",0.1 to 0.5 µM
6,"CN1CCN=C1c1ccc(NC(=O)C2c3ccccc3CN2C(=O)Nc2ccc(Cl)cc2)cc1 (centres unmarked) [Example 28, N-[4-(1-methyl-4,5-dihydro-1H-imidazol-2-yl)phenyl]-2N-(4-chlorophenylaminocarbonyl)-2,3-dihydro-1H-isoindole-1-carboxamide]",≤ 0.1 µM
7,"CN(c1ccncc1)c1ccc(NC(=O)C2Cc3ccccc3CN2C(=O)Nc2ccc(Cl)cc2)cc1 (centres unmarked) [Example 17, N-[4-(N-methyl-N-pyridin-4-yl-amino)phenyl]-2N-(4-chlorophenylaminocarbonyl)-1,2,3,4-tetrahydroisoquinoline-3-carboxamide]",≤ 0.1 µM
8,"O=C(NCC1CCN(c2ccncc2)CC1)C1Cc2ccccc2CN1C(=O)Nc1ccc(Cl)cc1 (centres unmarked) [Example 9, N-[1-(pyridin-4-yl)piperidin-4-yl]methyl-2N-(4-chlorophenylaminocarbonyl)-1,2,3,4-tetrahydroisoquinoline-3-carboxamide]",0.1 to 0.5 µM
9,"O=C(Nc1ccc(C(=O)N2CCCC2)cc1)C1Cc2ccccc2CN1C(=O)Nc1ccc(Cl)cc1 (centres unmarked) [Example 8, N-[4-(pyrrolidinylcarbonyl)phenyl]-2N-(4-chlorophenylaminocarbonyl)-1,2,3,4-tetrahydroisoquinoline-3-carboxamide]",≤ 0.1 µM
10,"O=C(Nc1ccc(-n2ccccc2=O)cc1)[C@H]1Cc2ccccc2CN1C(=O)Nc1ccc(F)cc1 [Example 47, (3R) N-[4-(2-pyridon-1-yl)phenyl]-2N-(4-fluorophenylaminocarbonyl)-1,2,3,4-tetrahydroisoquinoline-3-carboxamide]",≤ 0.1 µM
11,"CN1CCN=C1c1ccc(NC(=O)C2Cc3sccc3CN2C(=O)Nc2ccc(Cl)cc2)cc1 (centres unmarked) [Example 25, N-[4-(1-methyl-4,5-dihydro-1H-imidazol-2-yl)phenyl]-5N-(4-chlorophenylaminocarbonyl)-4,5,6,7-tetrahydro-thieno[3,2-c]pyridine-6-carboxamide]",≤ 0.1 µM
12,"O=C(Nc1ccc(-c2cccc[n+]2[O-])cc1)C1c2ccccc2CN1C(=O)Nc1ccc(Cl)cc1 (centres unmarked) [Example 29, N-[4-(1N-oxo-pyridin-2-yl)phenyl]-2N-(4-chlorophenylaminocarbonyl)-2,3-dihydro-1H-isoindole-1-carboxamide]",≤ 0.1 µM
13,"CN(C)C(=N)c1ccc(NC(=O)C2Cc3ccccc3CN2C(=O)Nc2ccc(Cl)cc2)cc1 (centres unmarked) [Example 5, N-[4-(dimethylaminoimino)phenyl]-2N-(4-chlorophenylaminocarbonyl)-1,2,3,4-tetrahydroisoquinoline-3-carboxamide]",≤ 0.1 µM
14,"CN1CCN(c2ccc(NC(=O)[C@H]3Cc4ccccc4CN3C(=O)Nc3ccc(Cl)cc3)cc2)C(=O)C1 [Example 45, (3R) N-[4-(4-methyl-2-piperazinon-1-yl)phenyl]-2N-(4-chlorophenylaminocarbonyl)-1,2,3,4-tetrahydroisoquinoline-3-carboxamide]",0.1 to 0.5 µM
15,"CN1CCCN(c2ccc(NC(=O)[C@H]3Cc4ccccc4CN3C(=O)Nc3ccc(Cl)cc3)cc2)CC1 [Example 33, (3R) N-[4-(4-methyl-homopiperazinyl)]phenyl-2N-(4-chlorophenylaminocarbonyl)-1,2,3,4-tetrahydroisoquinoline-3-carboxamide]",≤ 0.1 µM
16,"O=C(Nc1ccc(N2CCOCC2=O)cc1)C1Cc2ccccc2CN1C(=O)Nc1ccc(Cl)cc1 (centres unmarked) [Example 14, N-[4-(3-oxo-morpholin-4-yl)phenyl]-2N-(4-chlorophenylaminocarbonyl)-1,2,3,4-tetrahydroisoquinoline-3-carboxamide]",≤ 0.1 µM
17,"CN(C)C(=N)c1ccc(NC(=O)C2Cc3sccc3CN2C(=O)Nc2ccc(Cl)cc2)cc1 (centres unmarked) [Example 26, N-[4-(dimethylaminoimino)phenyl]-5N-(4-chlorophenylaminocarbonyl)-4,5,6,7-tetrahydro-thieno[3,2-c]pyridine-6-carboxamide]",≤ 0.1 µM
18,"CN1CCN=C1c1ccc(NC(=O)[C@@H]2Cc3ccccc3CN2C(=O)Nc2ccc(Cl)cc2)cc1 [3(S), (3S)-N-[4-(1-methyl-4,5-dihydro-1H-imidazol-2-yl)phenyl]-2N-(4-chlorophenylaminocarbonyl)-1,2,3,4-tetrahydroisoquinoline-3-carboxamide]",≤ 0.1 µM
19,"O=C(Nc1ccc(C(=O)N2CCOC2)cc1)C1Cc2ccccc2CN1C(=O)Nc1ccc(Cl)cc1 (centres unmarked) [Example 16, N-[4-(3-oxazolidinylcarbonyl)phenyl]-2N-(4-chlorophenylaminocarbonyl)-1,2,3,4-tetrahydroisoquinoline-3-carboxamide]",≤ 0.1 µM
20,"CN1CCN=C1c1ccc(NC(=O)C2Cc3cc(O)ccc3CN2C(=O)Nc2ccc(Cl)cc2)cc1 (centres unmarked) [Example 24, N-[4-(1-methyl-4,5-dihydro-1H-imidazol-2-yl)phenyl]-2N-(4-chlorophenylaminocarbonyl)-6-hydroxy-1,2,3,4-tetrahydroisoquinoline-3-carboxamide]",≤ 0.1 µM
21,"O=C(Nc1ccc(N2CCOCC2=O)cc1)C1c2ccccc2CN1C(=O)Nc1ccc(Cl)cc1 (centres unmarked) [Example 31, N-[4-(3-oxo-morpholin-4-yl)phenyl]-2N-(4-chlorophenylaminocarbonyl)-2,3-dihydro-1H-isoindole-1-carboxamide]",≤ 0.1 µM
22,"COc1cc2c(cc1OC)CN(C(=O)Nc1ccc(Cl)cc1)[C@H](C(=O)Nc1ccc(C3=NCCN3C)cc1)C2 [Example 21, (3S)-N-[4-(1-methyl-4,5-dihydro-1H-imidazol-2-yl)phenyl]-2N-(4-chlorophenylaminocarbonyl)-6,7-dimethoxy-1,2,3,4-tetrahydroisoquinoline-3-carboxamide]",≥ 0.5 µM
23,"CN1CCCN(c2ccc(NC(=O)[C@@H]3Cc4ccccc4CN3C(=O)Nc3ccc(Cl)cc3)cc2)CC1 [Example 34, (3S)N-[4-(4-methyl-homopiperazinyl)]phenyl-2N-(4-chlorophenylaminocarbonyl)-1,2,3,4-tetrahydroisoquinoline-3-carboxamide]",0.1 to 0.5 µM
